According to article PMC5218480 (PLoS ONE, 2017):

Tested on: MV-4-11 cells
Assay: Gene expression microarray analysis (Affymetrix PrimeView) and GSEA
Assay type: cell-based, human
Design: RFU PODN (11730768_x_at) / Fold change /veh PODN (11730768_x_at) / RFU LINC00158 (11744669_a_at) / Fold change /veh LINC00158 (11744669_a_at) / RFU DUSP10 (11751237_a_at) / Fold change /veh DUSP10 (11751237_a_at) / RFU ID3 (11757404_x_at) / Fold change /veh ID3 (11757404_x_at) / RFU PLEKHG5 (11737974_s_at) / Fold change /veh PLEKHG5 (11737974_s_at) / RFU LRRC4B (11730491_at) / Fold change /veh LRRC4B (11730491_at) / RFU GIMAP4 (11747438_a_at) / Fold change /veh GIMAP4 (11747438_a_at) / RFU KRT8 (11758183_x_at) / Fold change /veh KRT8 (11758183_x_at) / RFU CNN1 (11734310_a_at) / Fold change /veh CNN1 (11734310_a_at) / RFU VPS37D (11726825_at) / Fold change /veh VPS37D (11726825_at) / RFU C10orf10 (11716522_x_at) / Fold change /veh C10orf10 (11716522_x_at) / RFU KIR2DL2 /// KIR2DL4 /// KIR2DL5A /// KIR2DL5B /// KIR2DS1 /// KIR2DS2 /// KIR2DS3 /// KIR2DS4 /// KIR3DL3 /// KIR3DL3 /// KIR3DS1 (11738374_at) / Fold change /veh KIR2DL2 /// KIR2DL4 /// KIR2DL5A /// KIR2DL5B /// KIR2DS1 /// KIR2DS2 /// KIR2DS3 /// KIR2DS4 /// KIR3DL3 /// KIR3DL3 /// KIR3DS1 (11738374_at) / RFU C1QL1 (11718748_at) / Fold change /veh C1QL1 (11718748_at) / RFU TMPRSS4 (11747572_a_at) / Fold change /veh TMPRSS4 (11747572_a_at) / RFU HAMP (11756126_x_at) / Fold change /veh HAMP (11756126_x_at) / RFU RNFT2 (11725882_a_at) / Fold change /veh RNFT2 (11725882_a_at) / RFU NR4A2 (11747474_a_at) / Fold change /veh NR4A2 (11747474_a_at) / RFU ABCC12 (11746883_a_at) / Fold change /veh ABCC12 (11746883_a_at) / RFU TMEM136 (11760407_x_at) / Fold change /veh TMEM136 (11760407_x_at) / RFU CLDN22 /// WWC2 (11732394_at) / Fold change /veh CLDN22 /// WWC2 (11732394_at) / RFU HLA-DPB1 (11760878_x_at) / Fold change /veh HLA-DPB1 (11760878_x_at) / RFU SPINT1 (11716480_a_at) / Fold change /veh SPINT1 (11716480_a_at) / RFU GAP43 (11754022_s_at) / Fold change /veh GAP43 (11754022_s_at) / RFU A4GNT (11735810_at) / Fold change /veh A4GNT (11735810_at) / RFU PRB3 (11715151_x_at) / Fold change /veh PRB3 (11715151_x_at) / RFU TUBB4B (11761932_at) / Fold change /veh TUBB4B (11761932_at) / RFU CAPN14 (11732068_a_at) / Fold change /veh CAPN14 (11732068_a_at) / RFU TMCC2 (11721928_a_at) / Fold change /veh TMCC2 (11721928_a_at) / RFU IRGQ (11745062_a_at) / Fold change /veh IRGQ (11745062_a_at) / RFU FAM174B (11720279_a_at) / Fold change /veh FAM174B (11720279_a_at) / RFU TMPRSS4 (11748680_a_at) / Fold change /veh TMPRSS4 (11748680_a_at) / RFU FAM212B (11763350_a_at) / Fold change /veh FAM212B (11763350_a_at) / RFU PLEKHG5 (11743358_a_at) / Fold change /veh PLEKHG5 (11743358_a_at) / RFU ZSCAN30 (11745921_a_at) / Fold change /veh ZSCAN30 (11745921_a_at) / RFU CMKLR1 (11741424_a_at) / Fold change /veh CMKLR1 (11741424_a_at) / RFU LOC101060620 /// MAPK8IP1 (11723275_at) / Fold change /veh LOC101060620 /// MAPK8IP1 (11723275_at) / RFU SPTSSB (11747773_x_at) / Fold change /veh SPTSSB (11747773_x_at) / RFU PRSS12 (11739890_at) / Fold change /veh PRSS12 (11739890_at) / RFU BIN1 (11741810_x_at) / Fold change /veh BIN1 (11741810_x_at) / RFU WNT11 (11732464_a_at) / Fold change /veh WNT11 (11732464_a_at) / RFU C10orf10 (11716521_a_at) / Fold change /veh C10orf10 (11716521_a_at) / RFU C5orf56 (11738089_at) / Fold change /veh C5orf56 (11738089_at) / RFU CYB561 (11721691_x_at) / Fold change /veh CYB561 (11721691_x_at) / RFU ANKRD19P (11752326_a_at) / Fold change /veh ANKRD19P (11752326_a_at) / RFU OR2T12 /// OR2T33 /// OR2T8 (11738714_s_at) / Fold change /veh OR2T12 /// OR2T33 /// OR2T8 (11738714_s_at) / RFU VCAN (11748164_a_at) / Fold change /veh VCAN (11748164_a_at) / RFU JSRP1 (11732532_at) / Fold change /veh JSRP1 (11732532_at) / RFU KRTAP10-11 (11738290_x_at) / Fold change /veh KRTAP10-11 (11738290_x_at) / RFU MYO3A (11730013_a_at) / Fold change /veh MYO3A (11730013_a_at) / RFU EBF3 (11725865_a_at) / Fold change /veh EBF3 (11725865_a_at) / RFU CAMK2N1 (11719241_x_at) / Fold change /veh CAMK2N1 (11719241_x_at) / RFU C5orf56 (11738088_a_at) / Fold change /veh C5orf56 (11738088_a_at) / RFU OLFML3 (11715873_a_at) / Fold change /veh OLFML3 (11715873_a_at) / RFU LOC100653217 /// NTM (11731650_a_at) / Fold change /veh LOC100653217 /// NTM (11731650_a_at) / RFU MAPK11 (11762145_a_at) / Fold change /veh MAPK11 (11762145_a_at) / RFU FIZ1 (11724087_x_at) / Fold change /veh FIZ1 (11724087_x_at) / RFU OASL (11726364_x_at) / Fold change /veh OASL (11726364_x_at) / RFU SOX15 (11748057_x_at) / Fold change /veh SOX15 (11748057_x_at) / RFU CD79A (11719716_a_at) / Fold change /veh CD79A (11719716_a_at) / RFU HIST1H1D (11736915_at) / Fold change /veh HIST1H1D (11736915_at) / RFU CASKIN2 (11723855_a_at) / Fold change /veh CASKIN2 (11723855_a_at) / RFU LOC730098 (11760151_x_at) / Fold change /veh LOC730098 (11760151_x_at) / RFU OR4N2 (11742367_at) / Fold change /veh OR4N2 (11742367_at) / RFU PRRT2 (11749266_a_at) / Fold change /veh PRRT2 (11749266_a_at) / RFU SNX32 (11753110_a_at) / Fold change /veh SNX32 (11753110_a_at) / RFU CDHR5 (11726645_a_at) / Fold change /veh CDHR5 (11726645_a_at) / RFU RCAN1 (11760418_a_at) / Fold change /veh RCAN1 (11760418_a_at) / RFU FAM167A (11723789_a_at) / Fold change /veh FAM167A (11723789_a_at) / RFU FAM26E (11764081_at) / Fold change /veh FAM26E (11764081_at) / RFU ISYNA1 (11749810_s_at) / Fold change /veh ISYNA1 (11749810_s_at) / RFU ACY1 (11761880_at) / Fold change /veh ACY1 (11761880_at) / RFU 11764098_at / Fold change /veh 11764098_at / RFU SAMD14 (11745864_x_at) / Fold change /veh SAMD14 (11745864_x_at) / RFU NPB (11741838_a_at) / Fold change /veh NPB (11741838_a_at) / RFU TMPRSS6 (11731388_a_at) / Fold change /veh TMPRSS6 (11731388_a_at) / RFU KRTAP10-2 (11738614_at) / Fold change /veh KRTAP10-2 (11738614_at) / RFU ARHGAP8 /// PRR5-ARHGAP8 (11727945_x_at) / Fold change /veh ARHGAP8 /// PRR5-ARHGAP8 (11727945_x_at) / RFU KRTAP5-7 /// NADSYN1 (11734609_at) / Fold change /veh KRTAP5-7 /// NADSYN1 (11734609_at) / RFU RASL12 (11751679_a_at) / Fold change /veh RASL12 (11751679_a_at) / RFU CDKN2B (11736163_a_at) / Fold change /veh CDKN2B (11736163_a_at) / RFU PRF1 (11729649_at) / Fold change /veh PRF1 (11729649_at) / RFU, ZNF638 /// ZNF638-IT1 / Fold change vs veh, ZNF638 /// ZNF638-IT1 / RFU, PANK3 / Fold change vs veh, PANK3 / RFU, SH3YL1 / Fold change vs veh, SH3YL1 / RFU, ZEB2 / Fold change vs veh, ZEB2 / RFU, NRIP1 / Fold change vs veh, NRIP1 / RFU, PTTG1IP / Fold change vs veh, PTTG1IP / RFU, CAPN2 / Fold change vs veh, CAPN2 / RFU, MED14 / Fold change vs veh, MED14 / RFU, SNORA58 / Fold change vs veh, SNORA58 / RFU, C1orf63 / Fold change vs veh, C1orf63 / RFU, LRRFIP1 / Fold change vs veh, LRRFIP1 / RFU, NDUFAF7 / Fold change vs veh, NDUFAF7 / RFU, SLC12A2 / Fold change vs veh, SLC12A2 / RFU, IBTK / Fold change vs veh, IBTK / RFU, ESF1 / Fold change vs veh, ESF1 / Fold change vs veh, TMEM50B / RFU, TAOK1 / Fold change vs veh, TAOK1 / RFU, ACBD3 / Fold change vs veh, ACBD3 / RFU, TMA16 / Fold change vs veh, TMA16 / RFU, RWDD3 / Fold change vs veh, RWDD3 / RFU, BCAT1 / Fold change vs veh, BCAT1 / RFU, EDEM3 / Fold change vs veh, EDEM3 / RFU, TMEM33 / Fold change vs veh, TMEM33 / RFU, WDR75 / Fold change vs veh, WDR75 / RFU, AHCTF1 / Fold change vs veh, AHCTF1 / RFU, TFRC / Fold change vs veh, TFRC / RFU, ZDHHC17 / Fold change vs veh, ZDHHC17 / RFU, NOM1 / Fold change vs veh, NOM1 / RFU, ARL8B / Fold change vs veh, ARL8B / RFU, ZBTB11 / Fold change vs veh, ZBTB11 / RFU, TAMM41 / Fold change vs veh, TAMM41 / RFU, KIAA1704 /// LOC100996395 / Fold change vs veh, KIAA1704 /// LOC100996395 / RFU, ING1 / Fold change vs veh, ING1 / RFU, TRMT61B / Fold change vs veh, TRMT61B / RFU, FUBP3 / Fold change vs veh, FUBP3 / RFU, TP53 / Fold change vs veh, TP53 / RFU, TNKS2 / Fold change vs veh, TNKS2 / RFU, ZFP14 / Fold change vs veh, ZFP14 / RFU, ACTR2 / Fold change vs veh, ACTR2 / RFU, PPP3R1 / Fold change vs veh, PPP3R1 / RFU, PIK3R1 / Fold change vs veh, PIK3R1 / RFU, HNRNPA1 / Fold change vs veh, HNRNPA1 / RFU, RNF170 / Fold change vs veh, RNF170 / RFU, ZNF28 / Fold change vs veh, ZNF28 / RFU, RNGTT / Fold change vs veh, RNGTT / RFU, OGT / Fold change vs veh, OGT / RFU, BRD1 / Fold change vs veh, BRD1 / RFU, MARS / Fold change vs veh, MARS / RFU, ZNF655 / Fold change vs veh, ZNF655 / RFU, FAHD1 / Fold change vs veh, FAHD1 / RFU, BDP1 / Fold change vs veh, BDP1 / RFU, LRRCC1 / Fold change vs veh, LRRCC1 / RFU, ARID1A / Fold change vs veh, ARID1A / RFU, ZNF146 / Fold change vs veh, ZNF146 / RFU, ZNF330 / Fold change vs veh, ZNF330 / RFU, GPN3 / Fold change vs veh, GPN3 / RFU, C9orf123 / Fold change vs veh, C9orf123 / RFU, N4BP2L2 / Fold change vs veh, N4BP2L2 / RFU, ARFIP1 / Fold change vs veh, ARFIP1 / RFU, FAM179B / Fold change vs veh, FAM179B / RFU, BCL10 / Fold change vs veh, BCL10 / RFU, UHRF1BP1L / Fold change vs veh, UHRF1BP1L / RFU, BET1 / Fold change vs veh, BET1 / RFU, CNOT2 / Fold change vs veh, CNOT2 / RFU, ZNF268 / Fold change vs veh, ZNF268 / Fold change vs veh, ZNF507 / RFU, DGCR2 / Fold change vs veh, DGCR2 / RFU, WDSUB1 / Fold change vs veh, WDSUB1 / Fold change vs veh, HSP90B1 /// MIR3652 / RFU, ADSS / Fold change vs veh, ADSS / RFU, GK / Fold change vs veh, GK / RFU, ZNF148 / Fold change vs veh, ZNF148 / RFU, TAF9 / Fold change vs veh, TAF9 / RFU, SLC1A5 / Fold change vs veh, SLC1A5 / RFU, SLMO2 / Fold change vs veh, SLMO2 / RFU, ABCC4 / Fold change vs veh, ABCC4 / RFU, LOC101060439 /// RAP1B / Fold change vs veh, LOC101060439 /// RAP1B / RFU, RFX7 / Fold change vs veh, RFX7 / RFU, GTPBP10 / Fold change vs veh, GTPBP10 / RFU, CNEP1R1 / Fold change vs veh, CNEP1R1 / RFU, BIVM-ERCC5 /// ERCC5 / Fold change vs veh, BIVM-ERCC5 /// ERCC5 / RFU, ILF3 / Fold change vs veh, ILF3 / RFU 11762660_at / Fold change /veh 11762660_at / RFU VCAN (11757783_s_at) / Fold change /veh VCAN (11757783_s_at) / RFU DDX43 (11728927_at) / Fold change /veh DDX43 (11728927_at) / RFU KRT8 (11758188_x_at) / Fold change /veh KRT8 (11758188_x_at) / RFU NKD1 (11759106_at) / Fold change /veh NKD1 (11759106_at) / RFU SRD5A1 (11742802_a_at) / Fold change /veh SRD5A1 (11742802_a_at) / RFU TPSAB1 /// TPSB2 (11721975_s_at) / Fold change /veh TPSAB1 /// TPSB2 (11721975_s_at) / RFU GSTM3 (11746129_a_at) / Fold change /veh GSTM3 (11746129_a_at) / RFU IL23R (11737362_x_at) / Fold change /veh IL23R (11737362_x_at) / RFU TMEM51 (11727254_a_at) / Fold change /veh TMEM51 (11727254_a_at) / RFU PIWIL2 (11732686_x_at) / Fold change /veh PIWIL2 (11732686_x_at) / RFU ORM1 (11744905_x_at) / Fold change /veh ORM1 (11744905_x_at) / RFU CCDC152 (11743942_at) / Fold change /veh CCDC152 (11743942_at) / RFU ECM1 (11717891_a_at) / Fold change /veh ECM1 (11717891_a_at) / RFU IL23R (11748794_a_at) / Fold change /veh IL23R (11748794_a_at) / RFU TNFAIP8L3 (11732012_x_at) / Fold change /veh TNFAIP8L3 (11732012_x_at) / RFU MBOAT4 (11741988_at) / Fold change /veh MBOAT4 (11741988_at) / RFU 11764193_at / Fold change /veh 11764193_at / RFU TMEM53 (11763286_at) / Fold change /veh TMEM53 (11763286_at) / RFU MAGEB2 (11727129_at) / Fold change /veh MAGEB2 (11727129_at) / RFU TMEM200A (11744735_a_at) / Fold change /veh TMEM200A (11744735_a_at) / RFU CCDC152 (11751479_a_at) / Fold change /veh CCDC152 (11751479_a_at) / RFU FAM211A (11726209_a_at) / Fold change /veh FAM211A (11726209_a_at) / RFU RGS16 (11746705_a_at) / Fold change /veh RGS16 (11746705_a_at) / RFU VCAN (11755009_s_at) / Fold change /veh VCAN (11755009_s_at) / RFU RHOB (11743442_s_at) / Fold change /veh RHOB (11743442_s_at) / RFU RGS16 (11720943_a_at) / Fold change /veh RGS16 (11720943_a_at) / RFU RGS16 (11720944_at) / Fold change /veh RGS16 (11720944_at) / RFU, VPS4B / Fold change vs veh, VPS4B / RFU, CREB1 / Fold change vs veh, CREB1 / RFU, DNAJC13 / Fold change vs veh, DNAJC13 / RFU, GNAQ / Fold change vs veh, GNAQ / RFU, CDK5R1 / Fold change vs veh, CDK5R1 / RFU, ZRANB3 / Fold change vs veh, ZRANB3 / RFU, CUL4A / Fold change vs veh, CUL4A / RFU, CCNY / Fold change vs veh, CCNY / RFU, UFL1 / Fold change vs veh, UFL1 / RFU, COG3 / Fold change vs veh, COG3 / RFU, DIAPH2 / Fold change vs veh, DIAPH2 / RFU, SKA2 / Fold change vs veh, SKA2 / RFU, AFF3 / Fold change vs veh, AFF3 / RFU, LMF1 / Fold change vs veh, LMF1 / RFU, IPO11 / Fold change vs veh, IPO11 / RFU, DFFB / Fold change vs veh, DFFB / RFU, FOXP1 / Fold change vs veh, FOXP1 / RFU, CARD8 / Fold change vs veh, CARD8 / RFU, STRN3 / Fold change vs veh, STRN3 / RFU, ADK / Fold change vs veh, ADK / RFU, RASSF2 / Fold change vs veh, RASSF2 / RFU, WIPF1 / Fold change vs veh, WIPF1 / RFU, LARP1B / Fold change vs veh, LARP1B / RFU, RASA1 / Fold change vs veh, RASA1 / RFU, RB1 / Fold change vs veh, RB1 / RFU, PPFIA1 / Fold change vs veh, PPFIA1 / RFU, MAT2A / Fold change vs veh, MAT2A / RFU, CCT5 / Fold change vs veh, CCT5 / RFU, WDR92 / Fold change vs veh, WDR92 / RFU, CUX1 / Fold change vs veh, CUX1 / RFU, TTC7A / Fold change vs veh, TTC7A / RFU, TMEM135 / Fold change vs veh, TMEM135 / RFU, DEPTOR / Fold change vs veh, DEPTOR / RFU, CPM / Fold change vs veh, CPM / RFU, DNAJB6 / Fold change vs veh, DNAJB6 / RFU, CACNA2D3 / Fold change vs veh, CACNA2D3 / RFU, DTX4 / Fold change vs veh, DTX4 / RFU, TFCP2 / Fold change vs veh, TFCP2 / RFU, GMCL1 /// GMCL1P1 / Fold change vs veh, GMCL1 /// GMCL1P1 / RFU, AEBP2 / Fold change vs veh, AEBP2 / RFU, SNHG1 /// SNORD22 /// SNORD25 /// SNORD26 /// SNORD27 /// SNORD28 /// SNORD29 /// SNORD31 / Fold change vs veh, SNHG1 /// SNORD22 /// SNORD25 /// SNORD26 /// SNORD27 /// SNORD28 /// SNORD29 /// SNORD31 / Fold change (Aza/veh), C12orf56 (ProbeSet 11735607_a_at) / Fold change (ACY-1035/veh), C12orf56 (ProbeSet 11735607_a_at) / Fold change (Aza/veh), FGFR1OP (ProbeSet 11751329_s_at) / Fold change (ACY-1035/veh), FGFR1OP (ProbeSet 11751329_s_at) / Fold change (Aza/veh), VPS36 (ProbeSet 11739960_a_at) / Fold change (ACY-1035/veh), VPS36 (ProbeSet 11739960_a_at) / RFU SYPL1 (11715823_x_at) / Fold change /veh SYPL1 (11715823_x_at) / RFU IGFBP7 (11715501_s_at) / Fold change /veh IGFBP7 (11715501_s_at) / RFU REEP3 (11722064_at) / Fold change /veh REEP3 (11722064_at) / RFU IGLL1 (11728026_x_at) / Fold change /veh IGLL1 (11728026_x_at): dose or concentration left out as unconfirmed
Conditions: MV-4-11 cells, 48 hours

With `Nc1ncn([C@@H]2O[C@H](CO)[C@@H](O)[C@H]2O)c(=O)n1` [azacitidine] the “RFU CNN1 (11734310_a_at)” value was 25.48 RFU.
